# Test results published in publication PMC4821771 (The Journal of steroid biochemistry and molecular biology, 2016).
# Entries after “also recorded” stand apart in the source; their conditions may differ.
# Experiments:
# CYP3A4 = details: cited from earlier work
# [1] = high doses, up to 60 μg/kg in rodents; cited from earlier work
# recombinant human CYP3A4 = recombinant human CYP3A4 (Homo sapiens, UniProt P08684); assay: Metabolism by CYP3A4 supersomes; assay type: in vitro ADME; details: for Km / kcat: initial rates of formation of all products, substrate in 0.45% HP-β-CD, 60 nM CYP3A4, mean ± standard error of the curve fit; for proportion of 20,25(OH)2D3:20,24R(OH)2D3:20,24S(OH)2D3: products of 20(OH)D3, CYP3A4 (Fig. S3A)
# human liver microsomes [2] = assay: Metabolism of 20; assay type: in vitro ADME; details: for proportion of 20,25(OH)2D3:20,24R(OH)2D3:20,24S(OH)2D3 at the end of the time course: products of 20(OH)D3, human liver microsomes (Fig. S5A)
# SKMEL-188 melanoma cells = details: cited from earlier work
# human liver microsomes [3] = assay: Incubation of human liver microsomes with CYP3A4 inhibitors; details: for decrease of total products: 50 μM 20(OH)D3, 30 min
# human liver microsomes [4] = test system: human liver microsomes
# [5] = total product formation from 20(OH)D3, microsomes 1.5 mg/mL
# Chain of recombinant human CYP3A4 (P08684 2-503 limits assumed): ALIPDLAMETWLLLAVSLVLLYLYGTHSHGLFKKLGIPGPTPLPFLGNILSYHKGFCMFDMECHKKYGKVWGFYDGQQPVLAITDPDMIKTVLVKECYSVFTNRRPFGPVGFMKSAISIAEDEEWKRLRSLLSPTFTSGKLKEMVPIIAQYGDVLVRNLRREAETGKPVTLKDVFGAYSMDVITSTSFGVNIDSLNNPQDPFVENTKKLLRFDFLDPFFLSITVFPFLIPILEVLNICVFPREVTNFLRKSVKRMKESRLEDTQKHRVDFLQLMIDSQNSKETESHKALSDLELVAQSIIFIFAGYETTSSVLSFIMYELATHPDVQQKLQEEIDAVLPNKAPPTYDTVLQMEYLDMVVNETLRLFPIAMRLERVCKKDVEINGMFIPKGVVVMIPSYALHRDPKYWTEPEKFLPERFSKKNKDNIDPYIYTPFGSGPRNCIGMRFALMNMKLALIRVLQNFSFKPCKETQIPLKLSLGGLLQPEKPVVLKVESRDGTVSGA
structure (smiles),measurement,setting,value
"C=C1/C(=C\C=C2/CCC[C@]3(C)[C@@H]([C@H](C)CCCC(C)(C)O)CC[C@@H]23)C[C@@H](O)C[C@@H]1O [1,25(OH)2D3, 1,25-dihydroxyvitamin D3]",efficiency of metabolism by CYP3A4,CYP3A4,0.70 min^−1μM^−1
"C=C1CC[C@H](O)C/C1=C/C=C1\CCC[C@@]2(C)[C@H]1CC[C@@H]2[C@@](C)(O)CCCC(C)C [20(OH)D3, 20S-Hydroxyvitamin D3]",hypercalcaemia,[1],does not induce hypercalcaemia
same,more products with substrate in HP-β-CD than when added from acetonitrile,"recombinant human CYP3A4; CYP3A4 supersomes, not shown",25 fold
same,metabolised faster than 25(OH)D3 (times),"recombinant human CYP3A4; formation of total products, 50 μM substrate (Fig. S3B)",approximately 30 times
same,Km,recombinant human CYP3A4,32.6 ± 2.8 µM
same,kcat,recombinant human CYP3A4,17.7 ± 0.5 min⁻¹
same,substrate consumed by the end of the incubation,recombinant human CYP3A4; time course of 20(OH)D3 metabolism by CYP3A4 (Fig. S3A),18%
same,Km,human liver microsomes [2]; [5],165 ± 56 µM
same,Vmax,human liver microsomes [2]; [5],292.6 ± 60.3 min⁻¹
"C=C1CC[C@H](O)C/C1=C/C=C1\CCC[C@@]2(C)[C@H]1CC[C@@H]2[C@@](C)(O)CC[C@@H](O)C(C)C [20,24R(OH)2D3, 20,24R-dihydroxyvitamin D3]",inhibition of colony formation compared with 20(OH)D3,SKMEL-188 melanoma cells,more potent; also recorded: more strongly than the parent 20(OH)D3
same,Km,recombinant human CYP3A4,332 ± 194 µM
same,kcat,recombinant human CYP3A4,65.0 ± 28.5 min⁻¹
same,"proportion of 20,25(OH)2D3:20,24R(OH)2D3:20,24S(OH)2D3",recombinant human CYP3A4,0.41
same,"proportion of 20,25(OH)2D3:20,24R(OH)2D3:20,24S(OH)2D3 at the end of the time course",human liver microsomes [2],0.47
"C=C1CC[C@H](O)C/C1=C/C=C1\CCC[C@@]2(C)[C@H]1CC[C@@H]2[C@@](C)(O)CC[C@H](O)C(C)C [20,24S(OH)2D3, 20,24S-dihydroxyvitamin D3]",Km,recombinant human CYP3A4,86.9 ± 44.3 µM
same,kcat,recombinant human CYP3A4,16.5 ± 4.3 min⁻¹
same,"proportion of 20,25(OH)2D3:20,24R(OH)2D3:20,24S(OH)2D3",recombinant human CYP3A4,0.14
same,"proportion of 20,25(OH)2D3:20,24R(OH)2D3:20,24S(OH)2D3 at the end of the time course",human liver microsomes [2],0.16
"C=C1CC[C@H](O)C/C1=C/C=C1\CCC[C@@]2(C)[C@H]1CC[C@@H]2[C@@](C)(O)CCCC(C)(C)O [20,25(OH)2D3, 20,25-dihydroxyvitamin D3]",inhibition of colony formation compared with 20(OH)D3,SKMEL-188 melanoma cells,more potent; also recorded: more strongly than the parent 20(OH)D3
same,further metabolism by CYP3A4,"recombinant human CYP3A4; 25 μM substrate in 0.45% HP-β-CD, 60 nM CYP3A4, one hour",essentially no products formed
same,"proportion of 20,25(OH)2D3:20,24R(OH)2D3:20,24S(OH)2D3",recombinant human CYP3A4,1
same,Vmax,"human liver microsomes [2]; formation of the named product from 20(OH)D3, as given in the text",134.2 ± 36.0 pmol/min/mg protein
same,"proportion of 20,25(OH)2D3:20,24R(OH)2D3:20,24S(OH)2D3 at the end of the time course",human liver microsomes [2],1
"C=C1CC[C@H](O)C/C1=C/C=C1\CCC[C@]2(C)[C@@H]([C@H](C)CCCC(C)(C)O)CC[C@@H]12 [25(OH)D3, 25-hydroxyvitamin D3]",catalytic efficiency for metabolism by CYP3A4,CYP3A4,1.32 min⁻¹ µM⁻¹
CC[C@]1(C)C[C@@H](OC(=O)CSc2nnc(N)[nH]2)[C@]2(C)[C@H](C)CC[C@]3(CCC(=O)[C@H]32)[C@@H](C)[C@@H]1O [azamulin],decrease of total products,human liver microsomes [3]; 1 μM azamulin,60.0%
same,decrease of total products,human liver microsomes [3]; 10 μM azamulin,75.9%
same,"inhibition of production of 20,24R(OH)2D3, 20,24S(OH)2D3 and 20,25(OH)2D3","human liver microsomes [3]; human liver microsomes, abstract statement",almost completely inhibited
NNC(=O)c1ccncc1 [isoniazid],"effect on peaks corresponding to 20,25(OH)2D3, 20,24R(OH)2D3/20,26(OH)2D3, 20,24S(OH)2D3 and H6",human liver microsomes [4],markedly decreased
